Series [1] concerns C57BL/6 mouse. To be noted: 25 μmol/kg i.v. bolus.
Description: A 28 g C57BL/6 mouse was anesthetized using a 2% mixture of isoflurane in oxygen and anesthesia was maintained with a 1% mixture. The mouse forelimbs were shaved and fitted with pediatric ECG leads (Blue Sensor, BRS-50-K/US, Ambu, Inc., Linthicum, MD). […] Temperature was maintained at 37° C. using tubing that contained circulating, thermostated water. An i.v. line was implanted in the tail vein and the mouse was placed in the magnet.
(§2) Images were acquired on a Varian 4.7-T Inova scanner. A cardiac-gated gradient echo inversion recovery sequence was used whereby the inversion time was set to null the signal from the myocardium. The inversion pulse was a non-selective sinc pulse with a TI of 430 ms and TR of 3 seconds. The excitation is slice selective at 90 degrees and 3 to 4 lines were acquired per TR. Scan time was 4-5 minutes.
(§3) Baseline images were acquired. Typically 3-4 short-axis slices were acquired. […] Imaging was repeated out to an hour post injection.
Four ROIs were measured in the myocardium and in the left ventricle and the average measurements was taken. Signal to noise ratios (SNR) were calculated as signal intensity in myocardium or blood divided by the standard deviation of the noise. […] Contrast to noise ratios (CNR) for myocardium relative to blood pool was also calculated as: CNR=(SImyocardium−SIblood)/(SDnoise).
For series [2] the following is noted: 10 μmol/kg.
Series [3] has as its system C57BL/6 mouse. To be noted: 7-day old infarction, 25 μmol/kg i.v. bolus.
Description: A myocardial infarct (MI) was induced in a 28 g C57BL/6 mouse by a 1-hr occlusion of the left anterior descending coronary artery, followed by reperfusion. The mouse was allowed to recover. Seven days post MI, the mouse was anesthetized using a 2% mixture of isoflurane in oxygen and anesthesia was maintained with a 1% mixture. The mouse forelimbs were shaved and fitted with pediatric ECG leads (Blue Sensor, BRS-50-K/US, Ambu, Inc., Linthicum, Md.). […] Temperature was maintained at 37° C. using tubing that contained circulating, thermostated water. An i.v. line was implanted in the tail vein and the mouse was placed in the magnet.
as §2, §3
Series [4] relates to perfused Langendorff rat heart. The series is described as follows: Equilibrium binding to perfused Langendorff rat heart. The method, then:
After deep anesthesia with pentobarbital (80 mg/kg ip), the chest cavity of a male Sprague Dawley rat (300 g) was opened, retracted and the heart was removed immediately and placed in an ice-cold normal Krebs-Henseleit (K-H) solution (NaCl, 118 mM; KCl, 4.7 mM; CaCl2, 2.5 mM; MgSO4, 1.2 mM; KH2PO4, 1.2 mM; NaHCO3, 25 mM; glucose, 5.5 mM). A K-H buffer filled 20 Gauge needle was inserted into the apex of the heart penetrating into the bottom of the chamber. This was attached to a pressure transducer used to record and monitor heart function. Perfusion pressure (˜60 mmHg) was monitored using a second transducer. The heart was perfused at a constant flow rate of 10-12 mL/min with 37° C. […]
Two peptide test articles, a high collagen binding peptide (SEQ ID NO: 144) and a low collagen binding peptide (SEQ ID NO: 173), are compared to GdDTPA. […] The amount of radioactivity added to the buffer solution was 1-5 μCi.
The heart was perfused for a period of 10 minutes and the perfusion solution was recycled through the heart. […] The heart was then weighed and the radioactivity in the heart measured with a Packard Cobra 5003 Gamma Scintillation counter. An aliquot of the K-H buffer was also weighed and counted. […]
The dual peptide gadolinium tetramer (Compound ID 803) was compared to GdDTPA. […] The amount of radioactivity added to the buffer solution was 1-5 μCi.

A short description of series [5]: Biodistribution analysis in rats (heart and blood, radiotracer). The series is classed as in vivo, Sprague-Dawley rats. The note with it: rat, 1 and 5 min post injection. The method, then: Concentration estimates were decay corrected. Studies were performed at least in duplicate.
Series [6] concerns perfused Langendorff rat heart. The series is described as follows: Washout kinetics from perfused Langendorff rat heart. To be noted: 10 minutes perfusion with buffer after infusion.
Description: A K-H buffer filled 20 Gauge needle was inserted into the apex of the heart penetrating into the bottom of the chamber. This was attached to a pressure transducer used to record and monitor heart function. Perfusion pressure (˜60 mmHg) was monitored using a second transducer. The heart was perfused at a constant flow rate of 10-12 mL/min with 37° C. […] The heart was paced at 300 beats/min.
A Langendorff rat heart preparation was perfused with K-H buffer at a rate of 10-12 mL/min. […] After the infusion was finished, the heart was either removed or perfusion was allowed to continue for an additional 10 minutes and then the heart was removed. The perfusion buffer was not recirculated through the heart. After removal of any connective tissue, the heart was opened, fluid in the chambers drained, and the interior blotted dry with filter paper. […] An aliquot of the K-H buffer was also weighed and counted. Concentration estimates were decay corrected. Studies were performed at least in duplicate.
A Langendorff rat heart preparation was perfused with K-H buffer at a rate of 10-12 mL/min. […] After the infusion was finished, the heart was either removed or perfusion was allowed to continue for an additional 10 minutes and then the heart was removed. The perfusion buffer was not recirculated through the heart. After removal of any connective tissue, the heart was opened, fluid in the chambers drained, and the interior blotted dry with filter paper. […] An aliquot of the K-5H buffer was also weighed and counted. Concentration estimates were decay corrected. Studies were performed at least in duplicate.
A further series deals with T1, human type I collagen (Homo sapiens, UniProt P02452+P08123).
T1 construct: Acid soluble human collagen extracted from placenta; purchased Sigma C7774 (lot #083K375); host or cells: human placenta
As to the kind of experiment: MR phantom study: T1 of samples in human collagen gel. The series is classed as physicochemical. To be noted: in 7.5 μM human collagen gel; 10 μM Compound ID 1022; 0.47 Tesla, 37° C. The protocol:
Acid soluble human collagen type I extracted from placenta (Sigma, cat #C7774, lot #083K375) was dissolved in 15 mM HCl (3.5 mg/mL) by vortexing and gently shaking for 3-4 hours at 4° C. The acid soluble collagen was dialyzed against PBS (pH 7.4). Protein concentration was determined by the BCA method (Pierce, Cat #23225) using bovine collagen (Vitrogen, cat #FXP-019) as a reference standard. The final collagen concentration for the stock solution was 9 μM.
(§1) Samples: • 1. […] Sample prepared as sample 2, but centrifuged to separate insoluble rat collagen gel • 5. Sample prepared as sample 3, but centrifuged to separate insoluble human collagen gel • 6. 27 μM GdDTPA solution in PBS, pH 7.4 • 7. 27 μM GdDTPA in a solution of 5.0 μM rat type I collagen in 10 mM phosphate buffer, pH 5 incubated at 37° C. overnight to form a gel • 8. Sample prepared as in sample 7, but centrifuged to separate insoluble rat collagen gel • 9. Homogeneous gel of 5 μM rat collagen • 10. Homogeneous gel of 7.5 μM human collagen
T1 was determined for samples 1, 2, 3, 6, 7, 9, 10 at 0.47 Tesla using a Bruker NMS120 minispec NMR analyzer operating at 37° C.

The next series concerns the target T2, rat type I collagen (Rattus norvegicus, UniProt P02454+P02466).
T2 construct: Rat collagen (acid soluble, type I, rat tail); purchased Upstate USA, Inc 08-115; host or cells: rat tail
As to the kind of experiment: MR phantom imaging of collagen gel samples at 4.7 T. To be noted: centrifuged samples 4 and 8, 4.7 T. The method, then: as §1
Samples for imaging were placed in glass tubes that were in turn placed in tubes containing water. Images were acquired at 4.7 T on a Bruker Biospec Imager using a Multi-Slice Multi-Echo Method with variable Relaxation Delay (MSMEVTR) experiment. The spin echo time and the relaxation delay were set to TE=11.2 ms and TR=500 ms, respectively with a flip angle of 30°. Images were acquired of sample 2, sample 4, sample 7, and sample 8. […] Sample 7 and 8 show uniform signal intensity.

Where [7] appears, read: 40 day old infarcts, 50 min post-injection, two animals, listed as Compound ID NO. 800.

Where “and” joins values, the source holds several entries; their conditions need not be identical. Identical values can stand only once. Bridge positions count the residues as written; N and C are the ends. Square brackets hold non-standard residues; d marks the D form. Ends that are not written are not given here. Glu‑DTPA‑Gd = N-terminal Glu-DTPA-Gd chelate (gadolinium DTPA complex on glutamic acid)

T2 sequence (P02454 152-1207 limits assumed): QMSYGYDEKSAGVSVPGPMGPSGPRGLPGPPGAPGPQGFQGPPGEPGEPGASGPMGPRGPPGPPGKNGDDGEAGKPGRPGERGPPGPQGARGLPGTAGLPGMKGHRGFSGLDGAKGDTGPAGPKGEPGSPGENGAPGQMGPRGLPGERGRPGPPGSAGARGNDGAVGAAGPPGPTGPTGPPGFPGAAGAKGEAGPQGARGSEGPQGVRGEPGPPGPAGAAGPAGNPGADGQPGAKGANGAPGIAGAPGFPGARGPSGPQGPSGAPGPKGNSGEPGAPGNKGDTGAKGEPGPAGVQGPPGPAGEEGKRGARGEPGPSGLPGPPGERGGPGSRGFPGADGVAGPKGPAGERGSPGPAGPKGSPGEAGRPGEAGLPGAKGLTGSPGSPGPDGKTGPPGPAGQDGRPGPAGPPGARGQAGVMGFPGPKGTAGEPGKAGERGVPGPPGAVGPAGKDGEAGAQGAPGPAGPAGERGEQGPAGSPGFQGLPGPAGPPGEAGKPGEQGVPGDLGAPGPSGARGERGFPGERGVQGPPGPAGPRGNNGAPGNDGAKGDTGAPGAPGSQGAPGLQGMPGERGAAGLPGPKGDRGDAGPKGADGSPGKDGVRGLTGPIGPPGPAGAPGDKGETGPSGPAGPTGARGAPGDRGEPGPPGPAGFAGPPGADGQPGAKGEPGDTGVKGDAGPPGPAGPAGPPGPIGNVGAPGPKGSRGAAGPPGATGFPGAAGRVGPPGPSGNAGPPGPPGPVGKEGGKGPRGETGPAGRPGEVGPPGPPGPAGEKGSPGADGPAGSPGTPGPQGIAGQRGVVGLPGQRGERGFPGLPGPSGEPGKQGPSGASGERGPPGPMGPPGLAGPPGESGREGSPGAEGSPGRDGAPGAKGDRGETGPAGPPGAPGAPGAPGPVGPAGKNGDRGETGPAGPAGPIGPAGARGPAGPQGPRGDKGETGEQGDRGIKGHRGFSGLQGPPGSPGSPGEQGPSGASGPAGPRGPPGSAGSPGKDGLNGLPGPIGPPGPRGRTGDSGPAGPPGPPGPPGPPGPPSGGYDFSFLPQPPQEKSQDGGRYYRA
T2 sequence (P02466 86-1125 limits assumed): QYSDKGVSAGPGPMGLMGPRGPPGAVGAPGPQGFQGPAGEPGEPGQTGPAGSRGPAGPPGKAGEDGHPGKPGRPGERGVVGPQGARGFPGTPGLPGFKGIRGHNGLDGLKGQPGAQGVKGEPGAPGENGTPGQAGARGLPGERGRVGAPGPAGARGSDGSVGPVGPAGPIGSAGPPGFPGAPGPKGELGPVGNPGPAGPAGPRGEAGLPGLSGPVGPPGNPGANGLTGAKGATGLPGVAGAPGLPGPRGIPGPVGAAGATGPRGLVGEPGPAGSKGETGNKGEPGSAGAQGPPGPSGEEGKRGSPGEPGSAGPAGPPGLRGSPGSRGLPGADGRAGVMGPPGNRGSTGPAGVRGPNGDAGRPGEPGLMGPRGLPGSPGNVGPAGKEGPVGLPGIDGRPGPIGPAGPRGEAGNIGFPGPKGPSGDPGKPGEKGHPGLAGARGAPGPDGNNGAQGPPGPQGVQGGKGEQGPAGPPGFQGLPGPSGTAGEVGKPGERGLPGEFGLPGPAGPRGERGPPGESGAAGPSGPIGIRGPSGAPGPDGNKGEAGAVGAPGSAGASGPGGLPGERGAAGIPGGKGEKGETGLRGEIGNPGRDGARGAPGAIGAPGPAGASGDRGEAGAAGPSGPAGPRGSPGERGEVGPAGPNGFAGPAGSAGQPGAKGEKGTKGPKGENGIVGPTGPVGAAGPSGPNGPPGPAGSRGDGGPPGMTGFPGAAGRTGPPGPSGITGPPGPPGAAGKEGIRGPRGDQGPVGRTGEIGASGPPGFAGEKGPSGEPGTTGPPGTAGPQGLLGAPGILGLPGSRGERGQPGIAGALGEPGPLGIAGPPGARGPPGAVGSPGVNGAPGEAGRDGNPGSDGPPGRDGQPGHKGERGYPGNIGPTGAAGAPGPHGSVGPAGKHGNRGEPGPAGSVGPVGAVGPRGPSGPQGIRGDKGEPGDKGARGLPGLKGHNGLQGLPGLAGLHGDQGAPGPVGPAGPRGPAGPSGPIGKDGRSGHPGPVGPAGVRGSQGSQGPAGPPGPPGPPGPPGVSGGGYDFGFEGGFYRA
T1 sequence (P02452 162-1218 limits assumed): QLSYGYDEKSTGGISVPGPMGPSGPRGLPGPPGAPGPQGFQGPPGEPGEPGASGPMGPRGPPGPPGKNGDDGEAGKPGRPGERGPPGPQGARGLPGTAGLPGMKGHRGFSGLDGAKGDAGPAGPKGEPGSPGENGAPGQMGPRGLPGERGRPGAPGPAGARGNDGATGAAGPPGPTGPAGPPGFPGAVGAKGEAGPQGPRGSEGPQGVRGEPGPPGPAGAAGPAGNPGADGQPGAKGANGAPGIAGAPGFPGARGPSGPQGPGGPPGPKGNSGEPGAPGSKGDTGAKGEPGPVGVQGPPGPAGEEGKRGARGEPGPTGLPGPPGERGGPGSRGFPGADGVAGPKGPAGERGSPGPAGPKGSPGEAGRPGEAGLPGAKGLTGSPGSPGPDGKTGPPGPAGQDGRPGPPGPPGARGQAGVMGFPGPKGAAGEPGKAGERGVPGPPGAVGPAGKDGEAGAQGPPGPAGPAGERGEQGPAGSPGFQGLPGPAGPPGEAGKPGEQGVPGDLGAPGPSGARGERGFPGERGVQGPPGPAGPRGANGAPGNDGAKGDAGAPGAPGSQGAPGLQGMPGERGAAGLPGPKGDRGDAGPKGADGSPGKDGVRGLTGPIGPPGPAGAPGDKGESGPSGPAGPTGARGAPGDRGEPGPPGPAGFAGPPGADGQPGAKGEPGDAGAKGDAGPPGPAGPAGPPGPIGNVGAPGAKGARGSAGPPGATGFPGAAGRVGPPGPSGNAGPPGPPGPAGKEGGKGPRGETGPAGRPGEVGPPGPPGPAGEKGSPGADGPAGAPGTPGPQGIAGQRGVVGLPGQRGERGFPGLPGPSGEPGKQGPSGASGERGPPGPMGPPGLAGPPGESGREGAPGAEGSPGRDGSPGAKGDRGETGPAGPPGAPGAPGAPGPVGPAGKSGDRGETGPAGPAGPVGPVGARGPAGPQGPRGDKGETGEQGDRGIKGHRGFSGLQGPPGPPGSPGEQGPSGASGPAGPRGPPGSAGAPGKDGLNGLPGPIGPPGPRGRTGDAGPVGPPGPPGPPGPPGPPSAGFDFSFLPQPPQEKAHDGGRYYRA
T1 sequence (P08123 80-1119 limits assumed): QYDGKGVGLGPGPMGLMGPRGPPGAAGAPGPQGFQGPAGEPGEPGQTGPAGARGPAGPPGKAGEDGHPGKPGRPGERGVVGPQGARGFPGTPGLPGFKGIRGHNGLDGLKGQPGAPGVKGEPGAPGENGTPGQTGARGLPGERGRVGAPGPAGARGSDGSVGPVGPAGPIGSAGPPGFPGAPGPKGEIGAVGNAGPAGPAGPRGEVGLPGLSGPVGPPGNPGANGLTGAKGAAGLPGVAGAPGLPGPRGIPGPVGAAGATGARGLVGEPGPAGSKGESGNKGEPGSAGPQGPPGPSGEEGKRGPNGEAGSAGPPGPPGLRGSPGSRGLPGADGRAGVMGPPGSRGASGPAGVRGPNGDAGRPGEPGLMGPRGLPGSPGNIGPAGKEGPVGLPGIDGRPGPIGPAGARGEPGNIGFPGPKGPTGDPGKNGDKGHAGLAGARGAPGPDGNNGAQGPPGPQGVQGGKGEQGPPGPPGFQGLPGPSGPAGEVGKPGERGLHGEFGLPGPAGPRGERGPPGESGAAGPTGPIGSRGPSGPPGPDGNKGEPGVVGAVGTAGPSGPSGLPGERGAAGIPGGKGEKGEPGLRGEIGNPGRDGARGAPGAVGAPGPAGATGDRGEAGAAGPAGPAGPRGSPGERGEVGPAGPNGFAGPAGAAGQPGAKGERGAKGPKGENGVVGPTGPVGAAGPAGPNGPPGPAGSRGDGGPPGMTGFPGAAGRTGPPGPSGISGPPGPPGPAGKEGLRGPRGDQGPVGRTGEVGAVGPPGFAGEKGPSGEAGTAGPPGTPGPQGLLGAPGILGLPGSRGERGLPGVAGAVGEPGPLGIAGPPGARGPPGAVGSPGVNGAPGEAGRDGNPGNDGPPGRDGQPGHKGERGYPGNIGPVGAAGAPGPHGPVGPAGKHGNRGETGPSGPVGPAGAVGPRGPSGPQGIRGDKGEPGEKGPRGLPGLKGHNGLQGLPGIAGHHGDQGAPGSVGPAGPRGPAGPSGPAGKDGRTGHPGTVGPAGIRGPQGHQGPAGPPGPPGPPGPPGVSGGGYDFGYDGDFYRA

On to `CC(C)C[C@H](NC(=O)[C@@H]1CSSC[C@H](NC(=O)[C@H](Cc2c[nH]cn2)NC(=O)[C@H](Cc2c[nH]c3ccccc23)NC(=O)[C@H](CCCCNC(=O)CNC(=S)Nc2ccc(C[C@@H](CN(CCN(CC(=O)O)CC(=O)O)CC(=O)O)N(CC(=O)O)CC(=O)O)cc2)NC(=O)CNC(=S)Nc2ccc(C[C@@H](CN(CCN(CC(=O)O)CC(=O)O)CC(=O)O)N(CC(=O)O)CC(=O)O)cc2)C(=O)N[C@@H]([C@@H](C)O)C(=O)N[C@@H]([C@@H](C)O)C(=O)N[C@@H](CCCCNC(=S)Nc2ccc(C[C@@H](CN(CCN(CC(=O)O)CC(=O)O)CC(=O)O)N(CC(=O)O)CC(=O)O)cc2)C(=O)N[C@@H](Cc2ccccc2)C(=O)N2CCC[C@H]2C(=O)N[C@@H](Cc2c[nH]cn2)C(=O)N[C@@H](Cc2c[nH]cn2)C(=O)N[C@@H](Cc2ccc(O)cc2)C(=O)N1)C(=O)N[C@@H](Cc1ccc(O)cc1)C(=O)N[C@@H](Cc1ccc(-c2ccccc2)cc1)C(N)=O` [Compound ID 800], for which the “persistence of myocardial enhancement” value in the series on C57BL/6 mouse [1] is “at least 1 hour”. Moreover, the “enhancement of the myocardium” value in the series with C57BL/6 mouse [1] (4.7-T) was “positive enhancement of the myocardium”. Besides, the “retention of gadolinium in the heart” value in [2] is not below 30 min. Further, the “Gadolinium concentration in the heart” value in series [2] (1 minute post injection) is given as 23.9±7.8. In addition, the “MR enhancement of infarct zone versus viable myocardium” value in the series on C57BL/6 mice (7 day, 40 day or 210 day infarcts, 25 μmol/kg intravenous) is given as “infarct zone as hyperintense relative to the normal, viable myocardium”. In the series on C57BL/6 mice (setting [7]), the “gadolinium concentration, blood” value is 27.8 nmol Gd/g and 14.6 nmol Gd/g; the “tissue gadolinium concentration, scar” value was 137 nmol Gd/g and 122 nmol Gd/g. Moreover, in the series with C57BL/6 mouse [3], the “enhancement of myocardium and infarcted zones” value was “positive enhancement of the myocardium and hyperenhancement of infarcted zones”; the persistence of enhancement result is “at least 1 hour”.

Turning to “Q W T C S G D A Y T W H C N Y E (GQWTCSGDAYTWHCNYE; disulfide 5-14 (inferred)) [SEQ ID NO: 144, -G- Linker at the N-terminus]”, in series [4] (perfused 10 minutes, recycled), the “heart uptake compared with GdDTPA” value was “about 10 times”. In [5], the “heart uptake relative to GdDTPA control” value is “positive uptake in the heart relative to the GdDTPA negative control”. In addition, the “percent of compound present at 0 minutes post infusion that remains at 10 minutes” value in series [6] turned out to be 68%.

With “Q W T C S G D E Y T w H C N Y E (GQWTCSGDEYT[dW]HCNYE; disulfide 5-14 (inferred)) [SEQ ID NO: 173, -G- Linker at the N-terminus]”, the “specific heart uptake” value in series [4] (Buffer 3.0 μM) is on record as “no specific uptake”.

For the compound “Glu-DTPA-Gd-G.Q.W.H.C.T.T.R.F.P.H.H.Y.C.L.Y.G-PEG-H ({Glu‑DTPA‑Gd}-GQWHCTTRFPHHYCLYG; disulfide 5-14 (inferred); not fully specified (C-terminus)) [SEQ ID NO: 186]”, the “T1” value in the series with human type I collagen was found to be 2.100 s. Besides, the “signal of centrifuged collagen gel relative to supernatant” value with rat type I collagen is recorded as “the pellet for sample 4 was much brighter than the supernatant”.

On to `O=C([O-])CN(CCN(CC(=O)[O-])CC(=O)O)CCN(CC(=O)[O-])CC(=O)O.[Gd+3]` [GdDTPA, gadolinium diethylenetriaminepentaacetate], for which the “percent of compound present at 0 minutes post infusion that remains at 10 minutes” value in series [6] is 0.5% and 2.2%. Further, on rat type I collagen, the “signal of centrifuged collagen gel relative to supernatant” value is “no increased concentration of GdDTPA in the gel relative to the supernatant”.

(Values after US20070293656A1, “COLLAGEN BINDING PEPTIDES” (Epix Pharmaceuticals, Inc., priority 2005, published 2007).)
